# How the values were obtained:
# [1] = test system: HTT mRNA; assay: Splicing RT-qPCR assay, canonical (CJ) and alternative (AJ) junction mRNA, K562 cells; type: cell-based; details: Homo sapiens, K562.3 cells, 24 hours; for AC50: read-out: HTT AJ (AC50, increase in AJ mRNA); for IC50: read-out: HTT CJ (IC50, decrease in CJ mRNA)
# In short: (§1)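 RT-qPCR read-out: CJ and AJ isoforms quantified by ΔCt against GAPDH or GUSB, normalized to DMSO, and converted to % response. Windows in 96-well format (50,000 cells/well) were 4.0 ΔCt for MYB-CJ and 3 for MYB-AJ, and 3.5 ΔCt for HTT-CJ and 9 for HTT-AJ. Cells were dosed for 24 h, top 10 uM.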
# [2] = test system: MYB mRNA; assay: as above; type: cell-based; details: Homo sapiens, K562.3 cells, 24 hours; for AC50: read-out: MYB AJ (AC50, increase in AJ mRNA); for IC50: read-out: MYB CJ (IC50, decrease in CJ mRNA)
# In short: as §1
SMILES,AC50 [1],IC50 [1],AC50 [2],IC50 [2]
"COCCN[C@@H]1CCN(c2cc(O)c(C(=O)Nc3cc(F)c4nc(C)cn4c3)c3nn(C)cc23)C1 [Compound 285, N-(8-fluoro-2-methyl-imidazo[1,2-a]pyridin-6-yl)-6-hydroxy-4-[(3R)-3-(2-methoxyethylamino)pyrrolidin-1-yl]-2-methyl-indazole-7-carboxamide]",> 10000 nM,> 10000 nM,< 100 nM,< 100 nM
"Cc1cn2cc(NC(=O)c3c(O)cc(N4CC[C@@H](NC5CC5)C4)c4cn(C)nc34)cc(F)c2n1 [Compound 288, 4-[(3R)-3-(cyclopropylamino)-pyr-rolidin-1-yl]-N-(8-fluoro-2-methyl-imidazo[1,2-a]pyridin-6-yl)-6-hydroxy-2-methyl-indazole-7-carboxamide]",> 10000 nM,> 10000 nM,< 100 nM,< 100 nM
"Cn1cc2cc(NC(=O)c3c(O)cc(N4CC[C@@H](NC5CC5)C4)c4cn(C)nc34)cc(F)c2n1 [Compound 291, 4-[(3R)-3-(cyclopropylamino)pyrrolidin-1-yl]-N-(7-fluoro-2-methyl-indazol-5-yl)-6-hydroxy-2-methyl-indazole-7-carboxamide]",1000 to 10000 nM,1000 to 10000 nM,< 100 nM,< 100 nM
"CCN[C@@H]1CCN(c2cc(O)c(C(=O)Nc3cc(F)c4nn(C)cc4c3)c3nn(C)cc23)C1 [Compound 294, 4-[(3R)-3-(ethylamino)-pyrrolidin-1-yl]-N-(7-fluoro-2-methyl-indazol-5-yl)-6-hydroxy-2-methyl-indazole-7-carboxamide]",1000 to 10000 nM,100 to 1000 nM,< 100 nM,< 100 nM
"Cc1cn2cc(NC(=O)c3ccc(N4CCC(NC5CC5)CC4)c4cn(C)nc34)nc2c(C)n1 [Compound 297, 4-[4-(cyclopropylamino)-1-piperidyl]-N-(6,8-dimethylimidazo[1,2-a]pyrazin-2-yl)-2-methyl-indazole-7-carboxamide]",> 10000 nM,> 10000 nM,100 to 1000 nM,100 to 1000 nM
"COc1c(NC(=O)c2ncc(N3CCNCC3)c3cn[nH]c23)cn2cc(C)nc2c1F [Compound 606, N-(8-fluoro-7-methoxy-2-methyl-imidazo[1,2-a]pyridin-6-yl)-4-piperazin-1-yl-1H-pyrazolo[3,4-c]pyridine-7-carboxamide]",> 10000 nM,> 10000 nM,> 10000 nM,> 10000 nM
"COc1c(NC(=O)c2c(F)cc(N3CCNCC3)c3cn[nH]c23)cn2cc(C)nc2c1F [Compound 607, 6-fluoro-N-(8-fluoro-7-methoxy-2-methyl-imidazo[1,2-a]pyridin-6-yl)-4-piperazin-1-yl-1H-indazole-7-carboxamide]",1000 to 10000 nM,100 to 1000 nM,< 100 nM,< 100 nM
Cc1cn2cc(NC(=O)c3ccc(N4C[C@@H](C)N[C@@H](C)C4)c4c3nnn4C)cc(F)c2n1 [Compound 635],1000 to 10000 nM,1000 to 10000 nM,100 to 1000 nM,100 to 1000 nM

# Source: US20260285853A1, “COMPOUNDS AND METHODS FOR MODULATING SPLICING” (REMIX THERAPEUTICS INC., priority 2023, published 2026)
